Results as given in patent US12251234B2, “Systems and methods for transdermally detecting tissue ischemia and evaluating organ function using serum luminescence” (University of Macau, priority 2018, dated 2025).

How the values were obtained:
[1] = tested on: liver; test: Biochemical assay of rat serum in DEN-induced hepatocellular carcinoma rat model; type: in vivo
Protocol: Hepatocellular carcinoma (HCC) is a well-known malignant liver tumor often caused by liver cirrhosis. N-Nitrosodiethylamine ([…], DEN), which is a toxic substance with strong liver toxicity, was used to induce HCC in a rat tumor model. The dose of 300 g rats was 0.75 ml DEN/5 liters in drinking water; the dose of 400 g rats was 1.0 ml DEN/5 liters in drinking water. When the rats weighed over 200 g (about 6-7 weeks), they started to be fed. Group 1 was fed a half dose DEN, while Group 3 was fed a full dose. After 6 weeks of consecutive feeding (at the 12th week of experiment), feeding DEN to Group 1 discontinued. Group 3 continued scheduled DEN feedings for three additional weeks. Liver tumors were formed and confirmed by high-frequency ultrasonic imaging in vivo.
After rats were sacrificed, blood was collected and centrifuged, and the serum from centrifuge was tested, which included albumin, total bilirubin, glutamic pyruvic transaminase and glutamic oxaloacetic transaminase. If the liver is abnormal, the albumin content in the blood will decrease. Total bilirubin contains direct bilirubin and indirect bilirubin, which are the product of liver metabolism. If liver function is abnormal, total bilirubin in blood rises. Glutamic-pyruvate transaminase (GPT) and glutamic oxaloacetic transaminase (GOT) are also commonly used markers to evaluate liver function, although these two enzymes are not only found in the liver. Nevertheless, they are more abundant in liver cells than in other organs or tissue. When the liver is damaged, inflamed liver cells release GPT and GOT into the blood in large quantities. Therefore, the amount of these factors in the blood may be useful as a basis for judging the health of liver function. In addition, the liver was made into a paraffin block and processed with H&E staining. The staining results were observed and imaged by Nikon ECLIPSE NiE orthotropic fluorescence microscope.

[2] = ICG fluorescence dosimetry in rat blood vessels (retention/decay of ICG in circulation); type: in vivo
Protocol: Embodiments of the present disclosure enable systems and methods for detecting organ dysfunction and were validated using two optical systems to perform ICG fluorescence dosimetry on rats developing hepatocellular carcinoma (HCC).
One optical system used was a multiphoton microscope, which can non-invasively identify the location of vessels in vivo from sectioning two-photon fluorescence imaging. Time-course dynamics of concentration decay were also analyzed by the signal intensity within vessels. The other tested optical system was a point excitation and time course measurement using a 785 nm laser.
As shown in the diagram of FIG. 11, the multiphoton microscopy system used the scanning inverted microscope system of Leica DMI 3000M. The laser source was the femtosecond Cr:forsterite laser with a central wavelength of about 1250 nm. The output power was about 570 mW, and the beam diameter was about 2.5 mm. The excited light passed through a set of Galilean telescopes consisting of flat convex lenses and flat concave lenses to shrink the beam size down below 2 mm. Then, the excited beam passed through the periscope to rotate the polarization. After passing through the Iris Pair for system alignment, the beam entered a scanning module composed of a 16 kHz resonant mirror and a galvanometer mirror. The scanning angle of the resonant scanner was 5 degrees. The excited light was expanded by a set of relaying lenses so that it just filled the back aperture of the objective lens. The excitation beam was reflected by a 900-nm edged dichroic beam splitter (DM 900 SP) and focused by an objective lens (63×/NA 1.15. Zeiss) to excite biological tissues.
The generated two-photon fluorescence signals of ICG were epi-collected by the same objective lens and penetrated the DM900 SP. The signals were directed to a 484 nm edged dichroic beam splitter (DM484LP). The third harmonic generation signal (417 nm) was separated from the fluorescent signals longer than 484 nm. The third harmonic generation (THG) and two photon fluorescent (TPF) signals were filtered by a 414 nm/18 nm band pass filter and a 650 nm long pass filter, respectively. These signals were subsequently detected by photomultiplier tubes and digitized by a field programmable logic gate array (FPGA).
After the injection of ICG into the tail, there was a relatively low scattering and absorption of laser in the 1230 nm band, so the wavelength band could penetrate the skin deeper, and the background noise was low. Because blood cells can give strong THG signals, it was possible to locate the blood vessel by using THG imaging, as shown in FIG. 15A. Before ICG injection, there was no TPF signal (see FIG. 15B). After the injection, the TPF signals appeared immediately in the region of vessel (see FIG. 15C).
By selecting the region of interest (ROI) within vessel, we quantified the TPF intensity within the vessels. The fluorescence dosimetry curve of ICG can thus be measured (as shown in FIG. 16), which is ideal to evaluate the liver function. The dosimetry curve can be fitted with a single exponential decay function (red curve in FIG. 16), which represents a 4.4 minutes decay time constant after injection of ICG. The decay constant can be used as an index to evaluate the liver function. For Group 1 and Group 3 four serum parameters were measured to obtain liver function information: serum albumin, total bilirubin, GPT, and GOT. […]

[3] = healthy person; cited from earlier work
[4] = Group 1: half dose DEN in drinking water, 6 weeks
[5] = Group 3: full dose DEN in drinking water, 9 weeks
[6] = Group 3 rats (full dose DEN, HCC), FIG. 18

decay time (exponential decay model fit) [2, 6] [min] | initial amount still retained in circulation at 15 minutes post injection [2, 6] [%] | decay time constant after injection of ICG (single exponential decay fit) ([2]; healthy control Group rats, FIG. 16) [min] | amount of ICG metabolized within 15 minutes ([2]; healthy control Group rats, TPF dosimetry curve, FIG. 16) [%] | Structure (SMILES) | Albumin [1, 4] [g/dL] | GOT [1, 4] [U/L] | GPT [1, 4] [U/L] | Total bilirubin [1, 4] [mg/dL] | Albumin [1, 5] [g/dL] | GOT [1, 5] [U/L] | GPT [1, 5] [U/L] | Total bilirubin [1, 5] [mg/dL] | leakage of ICG out of blood vessels (TPF imaging after tail injection) ([2]; rat, sectioning TPF/THG images, FIG. 15) | ICG-15 (retention percentage at 15 minutes post ICG injection) [3]
– | – | – | – | CCN(CC)N=O [DEN, N-Nitrosodiethylamine] | 3.9 | 89 | 60.3 | 0.27 | 3.75 | 265 | 129 | 0.6 | – | –
13 | 45 | 4.4 | 90 | CC1(C)C(/C=C/C=C/C=C/C=C2\N(CCCCS(=O)(=O)O)c3ccc4ccccc4c3C2(C)C)=[N+](CCCCS(=O)(=O)[O-])c2ccc3ccccc3c21 [ICG, indocyanine green] | – | – | – | – | – | – | – | – | did not leak out into extravascular spaces | below 10 % of the initial concentration
